The target in the test is human PDE10A2 (Homo sapiens (Human), UniProt Q9Y233). Briefly: PDE10 fluorescence polarization (IMAP FP) inhibition assay. Type of test: biochemical. The following applies: apparent inhibition constant, FAM-labeled cAMP substrate 50 nM, room temperature. The procedure:
The activity of the compounds in accordance with the present invention as PDE10 inhibitors may be readily determined without undue experimentation using a fluorescence polarization (FP) methodology that is well known in the art (Huang, W., et al., J. Biomol Screen, 2002, 7: 215).
In a typical experiment the PDE10 inhibitory activity of the compounds of the present invention was determined in accordance with the following experimental method. PDE10A2 was amplified from human fetal brain cDNA (Clontech, Mountain View, Calif.) using a forward primer corresponding to nucleotides 56-77 of human PDE10A2 (Accession No. AF127480, Genbank Identifier 4894716), containing a Kozak consensus sequence, and a reverse primer corresponding to nucleotides 2406-2413 of human PDE10A2 (Accession No. AF127480, Genbank Identifier 4894716). Amplification with Easy-A polymerase (Stratagene, La Jolla, Calif.) was 95° C. for 2 minutes followed by thirty three cycles of 95° C. for 40 seconds, 55° C. for 30 seconds, and 72° C. for 2 minutes 48 seconds. Final extension was 72° C. for 7 minutes. The PCR product was TA cloned into pcDNA3.2-TOPO (Invitrogen, Carlsbad, Calif.) according to standard protocol. AD293 cells with 70-80% confluency were transiently transfected with human PDE10A2/pcDNA3.2-TOPO using Lipofectamine 2000 according to manufacturer specifications (Invitrogen, Carlsbad, Calif.). Cells were harvested 48 hours post-transfection and lysed by sonication (setting 3, 10×5 sec pulses) in a buffer containing 20 mM HEPES, 1 mM EDTA and protease inhibitor cocktail (Roche). Lysate was collected by centrifugation at 75,000×g for 20 minutes. Supernatant containing the cytoplasmic fraction was used for evaluation of PDE10A2 activity. The fluorescence polarization assay for cyclic nucleotide phosphodiesterases was performed using an IMAP® FP kit supplied by Molecular Devices, Sunnyvale, Calif. (product # R8139). IMAP® technology has been applied previously to phosphodiesterase assays (Huang, W., et al., J. Biomol Screen, 2002, 7: 215). Assays were performed at room temperature in 384-well microtiter plates with an incubation volume of 20.2 μL. Solutions of test compounds were prepared in DMSO and serially diluted with DMSO to yield 8 μL of each of 10 solutions differing by 3-fold in concentration, at 32 serial dilutions per plate. 100% inhibition is determined using a known PDE10 inhibitor, which can be any compound that is present at 5,000 times its Ki value in the assay described as follows, such as papaverine (see Siuciak, et al. Neuropharmacology (2006) 51:386-396; Becker, et al. Behav Brain Res (2008) 186(2):155-60; Threlfell, et al., J Pharmacol Exp Ther (2009) 328(3):785-795), 2-{4-[pyridin-4-yl-1-(2,2,2-trifluoroethyl)-1H-pyrazol-3-yl]phenoxymethyl}quinoline succinic acid or 2-[4-(1-methyl-4-pyridin-4-yl-1H-pyrazol-3-yl)-phenoxymethyl]quinoline succinic acid (see Schmidt, et al. J Pharmacol Exp Ther (2008) 325:681-690; Threlfell, et al., J Pharmacol Exp Ther (2009) 328(3): 785-795). 0% of inhibition is determined by using DMSO (1% final concentrations). A Labcyte Echo 555 (Labcyte, Sunnyvale, Calif.) is used to dispense […] from each well of the titration plate to the 384 well assay plate. A solution of enzyme (1/7000 dilution from aliquots; sufficient to produce 20% substrate conversion) and a separate solution of FAM-labeled cAMP PDE from Molecular Devices (product # R7506), at a final concentration of 50 nM are made in the assay buffer (10 mM Tris HCl, pH 7.2, 10 mM MgCl2, 0.05% NaN3 0.01% Tween-20, and 1 mM DTT). The enzyme is added to the assay plates by the addition of 10 μL of enzyme solution to each well, shaken to mix and incubated at room temperature for 60 minutes. The substrate is then added to the assay plates by the addition of 10 μL of substrate solution to each well, shaken to mix, and incubated at room temperature for 60 minutes. […]
For orientation: In fluorescence polarisation assays a small probe gives low polarisation when free and higher when bound to something large.

human PDE10A2, sequence (Q9Y233 267-1055): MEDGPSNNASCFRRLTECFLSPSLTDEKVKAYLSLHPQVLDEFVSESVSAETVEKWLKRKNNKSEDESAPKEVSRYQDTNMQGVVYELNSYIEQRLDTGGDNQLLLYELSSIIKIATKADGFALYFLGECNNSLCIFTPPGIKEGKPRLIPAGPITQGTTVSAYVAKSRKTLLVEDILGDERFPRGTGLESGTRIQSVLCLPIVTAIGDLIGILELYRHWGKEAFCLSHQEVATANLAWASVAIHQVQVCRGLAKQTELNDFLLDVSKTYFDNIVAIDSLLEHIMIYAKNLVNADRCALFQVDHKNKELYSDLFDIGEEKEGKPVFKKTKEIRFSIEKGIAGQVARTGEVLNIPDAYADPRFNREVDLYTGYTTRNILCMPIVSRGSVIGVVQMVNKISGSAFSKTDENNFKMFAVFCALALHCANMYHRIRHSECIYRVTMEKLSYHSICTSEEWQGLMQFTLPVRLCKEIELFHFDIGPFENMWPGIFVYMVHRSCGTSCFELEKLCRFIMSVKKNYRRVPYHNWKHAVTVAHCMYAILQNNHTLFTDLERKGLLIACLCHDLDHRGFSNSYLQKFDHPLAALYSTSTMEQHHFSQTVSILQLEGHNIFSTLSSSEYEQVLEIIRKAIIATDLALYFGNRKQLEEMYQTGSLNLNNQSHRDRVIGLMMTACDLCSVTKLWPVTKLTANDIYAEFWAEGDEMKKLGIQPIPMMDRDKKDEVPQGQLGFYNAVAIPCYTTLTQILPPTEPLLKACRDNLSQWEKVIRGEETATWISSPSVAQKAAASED

For `Cc1cc(C)n(-c2cc(N3CC(c4nc5ccccc5n4C)C3)nc(C)n2)n1` [Example 7, 2-(1-(6-(3,5-dimethyl-1H-pyrazol-1-yl)-2-methylpyrimidin-4-yl)azetidin-3-yl)-1-methyl-1H-benzo[d]imidazole], the Ki was 8.6 nM. For the molecule `Cc1nc(-c2ccccc2O)cc(N2CC(c3nc4ccccc4n3C)C2)n1` [Example 92, 2-(2-methyl-6-(3-(1-methyl-1H-benzo[d]imidazol-2-yl)azetidin-1-yl)pyrimidin-4-yl)phenol], the Ki came out at 30 nM. For `COc1nc(N2CC(c3nc4ccccc4n3C)C2)cc(-n2nc(C)nc2C)n1` [Example 62, 2-{1-[6-(3,5-dimethyl-1H-1,2,4-triazol-1-yl)-2-methoxypyrimidin-4-yl]azetidin-3-yl}-1-methyl-1H-benzimidazole], the Ki stood at 0.76 nM.

In the case of `CCc1nc(CC)n(-c2cc(N3CC(c4nc5ccccc5n4C)C3)nc(C)n2)n1` [Example 22, 2-(1-(6-(3,5-diethyl-1H-1,2,4-triazol-1-yl)-2-methylpyrimidin-4-yl)azetidin-3-yl)-1-methyl-1H-benzo[d]imidazole], the Ki was determined as 3.3 nM.

`Cc1nc(-c2cccc(C(F)(F)F)n2)cc(N2CC(c3nc4ccccc4n3C)C2)n1` [Example 87, 1-methyl-2-(1-(2-methyl-6-(6-(trifluoromethyl)pyridin-2-yl)pyrimidin-4-yl)azetidin-3-yl)-1H-benzo[d]imidazole]: the Ki amounted to 1.3 nM. Then `CSc1nc(N2CC(c3nc4ccccc4n3C)C2)cc(-n2nc(C)nc2C)n1` [Example 23, 2-(1-(6-(3,5-dimethyl-1H-1,2,4-triazol-1-yl)-2-(methylthio)pyrimidin-4-yl)azetidin-3-yl)-1-methyl-1H-benzo[d]imidazole], with 0.2 nM. As to `COc1ccccc1-c1cc(N2CC(c3nc4ccccc4n3C)C2)nc(C)n1` [Example 89, 2-(1-(6-(2-methoxyphenyl)-2-methylpyrimidin-4-yl)azetidin-3-yl)-1-methyl-1H-benzo[d]imidazole], the Ki was determined as 63 nM. Then `COC(=O)c1nc(N2CC(c3nc4ccccc4n3C)C2)cc(-n2nc(C)nc2C)n1` [Example 24, methyl 4-(3,5-dimethyl-1H-1,2,4-triazol-1-yl)-6-(3-(1-methyl-1H-benzo[d]imidazol-2-yl)azetidin-1-yl)pyrimidine-2-carboxylate], with 1.8 nM; and `CC(=O)c1ccc(-c2cc(N3CC(c4nc5ccccc5n4C)C3)nc(C)n2)nc1` [Example 102, 1-(6-(2-methyl-6-(3-(1-methyl-1H-benzo[d]imidazol-2-yl)azetidin-1-yl)pyrimidin-4-yl)pyridin-3-yl)ethanone], with 9 nM; and `Cc1nc(C)n(-c2cc(N3CC(c4nc5ccccc5n4C)C3)nc(-n3cccn3)n2)n1` [Example 76, 2-(1-(6-(3,5-dimethyl-1H-1,2,4-triazol-1-yl)-2-(1H-pyrazol-1-yl)pyrimidin-4-yl)azetidin-3-yl)-1-methyl-1H-benzo[d]imidazole], with 0.61 nM. Take `CCc1nc(C)nn1-c1cc(N2CC(c3nc4ccccc4n3C)C2)nc(OC)n1` [Example 64, 2-(1-(6-(5-ethyl-3-methyl-1H-1,2,4-triazol-1-yl)-2-methoxypyrimidin-4-yl)azetidin-3-yl)-1-methyl-1H-benzo[d]imidazole]: the Ki came to 0.4 nM. Then `Cc1nc(N2CC(c3nc4ccccc4n3C)C2)cc(-n2cc(CO)cn2)n1` [Example 19, (1-(2-methyl-6-(3-(1-methyl-1H-benzo[d]imidazol-2-yl)azetidin-1-yl)pyrimidin 4-yl)-1H-pyrazol-4-yl)methanol], with 8.3 nM. For `Cc1nc(N2CC(c3nc4ccccc4n3C)C2)cc(-n2cccn2)n1` [Example 3, 1-methyl-2-(1-(2-methyl-6-(1H-pyrazol-1-yl)pyrimidin-4-yl)azetidin-3-yl)-1H-benzo[d]imidazole], the Ki is 2.5 nM. In the case of `Cc1nc(N2CC(c3nc4c(C(F)(F)F)cccc4n3C)C2)cc(-n2nc(C)nc2C)n1` [Example 125, 2-(1-(6-(3,5-dimethyl-1H-1,2,4-triazol-1-yl)-2-methylpyrimidin-4-yl)azetidin-3-yl)-1-methyl-4-(trifluoromethyl)-1H-benzo[d]imidazole], the Ki turned out to be 37 nM.

Take `Cc1cnn(-c2cc(N3CC(c4nc5ccccc5n4C)C3)nc(C(F)(F)F)n2)c1` [Example 5, 1-methyl-2-(1-(6-(4-methyl-1H-pyrazol-1-yl)-2-(trifluoromethyl)pyrimidin-4-yl)azetidin-3-yl)-1H-benzo[d]imidazole]: the Ki came out at 1.2 nM.

For `COc1nc(N2CC(c3nc4ccccc4n3C)C2)cc(-n2cc(C)cn2)n1` [Example 4, 2-(1-(2-methoxy-6-(4-methyl-1H-pyrazol-1-yl)pyrimidin-4-yl)azetidin-3-yl)-1-methyl-1H-benzo[d]imidazole], the Ki came to 0.82 nM. Regarding `Cc1nc(N2CC(c3nc4cccc(F)c4n3C)C2)cc(-n2nc(C)nc2C)n1` [Example 123, 2-(1-(6-(3,5-dimethyl-1H-1,2,4-triazol-1-yl)-2-methylpyrimidin-4-yl)azetidin-3-yl)-7-fluoro-1-methyl-1H-benzo[d]imidazole], the Ki was 7.1 nM. The same measure for `Cc1cnn(-c2cc(N3CC(c4nc5ccccc5n4C)C3)nc(C3CC3)n2)n1` [Example 33, 2-(1-(2-cyclopropyl-6-(4-methyl-2H-1,2,3-triazol-2-yl)pyrimidin-4-yl)azetidin-3-yl)-1-methyl-1H-benzo[d]imidazole]: 0.54 nM; for `Cc1cnc(-c2nc(C)nn2-c2cc(N3CC(c4nc5ccccc5n4C)C3)nc(C)n2)cn1` [Example 53, 1-methyl-2-(1-(2-methyl-6-(3-methyl-5-(5-methylpyrazin-2-yl)-1H-1,2,4-triazol-1-yl)pyrimidin-4-yl)azetidin-3-yl)-1H-benzo[d]imidazole]: 26 nM; for `Cc1nc(N2CC(c3nc4ccccc4n3CCO)C2)cc(-n2nc(C)nc2C)n1` [Example 117, 2-(2-(1-(6-(3,5-dimethyl-1H-1,2,4-triazol-1-yl)-2-methylpyrimidin-4-yl)azetidin-3-yl)-1H-benzo[d]imidazol-1-yl)ethanol]: 6.6 nM. `Cc1nc(-c2ccccc2OC(F)F)cc(N2CC(c3nc4ccccc4n3C)C2)n1` [Example 91, 2-(1-(6-(2-(difluoromethoxy)phenyl)-2-methylpyrimidin-4-yl)azetidin-3-yl)-1-methyl-1H-benzo[d]imidazole]: the Ki came to 22 nM. On to `Cc1nc(C)n(-c2cc(N3CC(c4nc5ccccc5n4C)C3)nc(C3CC3)n2)n1` [Example 61, 2-{1-[2-cyclopropyl-6-(3,5-dimethyl-1H-1,2,4-triazol-1-yl)pyrimidin-4-yl]azetidin-3-yl}-1-methyl-1H-benzimidazole], for which the Ki is 0.46 nM. For the molecule `Cc1nc(C)n(-c2cc(N3CC(c4nc5ccccc5n4C)C3)nc(-n3ccnc3C)n2)n1` [Example 77, 2-(1-(6-(3,5-dimethyl-1H-1,2,4-triazol-1-yl)-2-(2-methyl-1H-imidazol-1-yl)pyrimidin-4-yl)azetidin-3-yl)-1-methyl-1H-benzo[d]imidazole], the Ki is 0.26 nM. “1-(1-{2-methoxy-6-3-(1-methyl-1H-benzimidazol-2-yl)azetidin-1-yl]pyrimidin-4-yl}-1H-pyrazol-4-yl)ethanol [Example 20]”: the Ki came to 37 nM.

These data come from patent publication US9365562B2, “1,3 substituted azetidine PDE10 inhibitors” (Merck Sharp & Dohme Corp., priority 2011, dated 2016).
